Data taken from patent publication US20060111308A1, “Methods and compositions for therapeutic treatment” (priority 2004, published 2006).
Read-outs that look alike come from different tables or passages of the source.

Key:
[1] = tested on: adult subjects with chronic pain; assay: Human study of the effects of oral quercetin (Q) and analgesics on sedation, concentration and pain; type: in vivo
Experimental: An empiric trial on the effects of oral quercetin (Q) on sedation, concentration, and pain was conducted. Inclusion criteria included ongoing pain of at least 4/10 on the Likert scale, poor tolerance of current analgesic regimen (complaints of sedation, dizziness, inability to focus), and willingness to complete daily diaries.
Approximately 16 adult subjects with chronic pain were screened and 9 subjects were admitted to the trial. Their pain disorders included peripheral neuropathy (2), facial pain (2), cervical radiculopathy (2), lumbar spine disease (3). Their pre-existing medications included short acting opioids (Vicodin TID, Tramadol 50 mg Q4-6), high dose, long acting opioids (OxyContin 240 mg, Methadone 400 mg), Gabapentin (900 mg and 2700 mg), Ativan, Flexeril, and Soma 350 mg. Seven of the subjects were using at least two analgesic medications. Two subjects were using no current medications because of prior histories of sedation and dizziness during opioid trials.
Q (Sigma) 500 mg per gel capsule was compounded and supplied to all subjects by overnight mail. Subjects were instructed to complete daily diaries for 7 days and continue their baseline medications and regular activities. On approximately the 7th day, they were asked to begin twice daily dosing of 2 Q (1000 mg) capsules (total daily dose of Q, 2000 mg). Diaries were completed for 7 days. Individual diaries included rating sleep interference, focus, pain now, and worst pain over the prior 24 hours. Subjects were instructed that concomitant pain medications should not be altered without speaking with the investigator. Subjects were advised that they would be contacted by telephone every day or every other day to assess progress in the trial and any side effects associated with the addition of Q. At the end of the trial, patients were interviewed. They were asked to rate their satisfaction with the study medication (−2−+2) and its ability to modulate the CNS effects of their pain medications.

[2] = in vivo; cited from earlier work
[3] = tested on: mdr1a (P-gP) knockout (−/−) mouse; conditions: cited from earlier work; for sensitivity to fetal cleft palate: same doses as knockout mice
[4] = after 7 days of co-administration of Q (2000 mg daily, oral) and analgesics, FIG. 16
[5] = scale of −2 to 2, patients on opiate or MSD and Q

Structure (SMILES) | mean ratings for concentration improved [1, 4] | mean ratings for sleep improved [1, 4] | mean ratings for worst pain improved [1, 4] | mean ratings for pain now decreased ([1]; after 7 days of co-administration of Q (2000 mg daily, oral) and analgesics, all patients taking analgesic medications and Q, FIG. 16) | worst pain in the last 24 hrs (NPRS) ([1]; all patients after taking Q, 1 no pain, 10 worst, FIG. 7) | concentration rating (short term memory, focus, wakefulness) ([1]; all patients after taking Q, 1 perfect concentration, 10 worst, FIG. 6) | pain at the time the patients were called (pain now) ([1]; all patients after taking Q, FIG. 8) | sleep rating ([1]; all patients after taking Q, scale to 10 as worst, FIG. 5) | global assessment on the scale of −2 to 2 ([1]; all patients on opiate or MSD (membrane stabilizing drug) and modulator (Q), FIG. 15) | central withdrawal ([1]; opioid users taking Q) | patients reporting 2 in global assessment [1, 5] | patients reporting −2 in global assessment [1, 5] | pain on the scale from 1-10 (worst pain in last 24 hrs, pain at time of call) ([1]; two patients not on baseline meds, poor tolerance of systemic medications, FIG. 13 and 14) | serum half-life [2] [h] | sensitivity to fetal cleft palate ([3]; heterozygous (+/−) mice) | sensitivity to fetal cleft palate ([3]; homozygous (+/+) mice) | incidence of fetal cleft palate ([3]; mdr1a knockout mice) [%]
O=c1c(O)c(-c2ccc(O)c(O)c2)oc2cc(O)cc(O)c12 [Q, quercetin] | over 60% | more than 25% | more than 25% | more than 70% | overall improvement | overall improvement | overall improvement | overall improvement | overall improvement | noted in 3 | three | none | brought the pain down | 19 to 25 |  |  | 
CC[C@H](C)[C@H]1O[C@]2(C=C[C@@H]1C)C[C@@H]1C[C@@H](C/C=C(\C)[C@@H](O[C@H]3C[C@H](OC)[C@@H](O[C@H]4C[C@H](OC)[C@@H](O)[C@H](C)O4)[C@H](C)O3)[C@@H](C)/C=C/C=C3\CO[C@@H]4[C@H](O)C(C)=C[C@@H](C(=O)O1)[C@]34O)O2 [avermectin] |  |  |  |  |  |  |  |  |  |  |  |  |  |  | less sensitive | insensitive | 100
